From patent publication US20260263651A1, “WOUND DRESSING” (UNIVERSITY OF SUNDERLAND, priority 2023, published 2026)
“Also recorded” adds a separate entry of the source.

Key:
Assay type in all cases: cell-based
Escherichia coli [1] = test: Microbiological evaluation of standardised bacterial suspensions, modified wound dressing with absorbed substrate on agar; design: key to Observable colour change: − indicates no colour change; +− indicates relatively discernible blue colour change; + indicates a moderately strong blue colour change; ++ indicates a strong blue colour change
Procedure: (§1) ACTIVHEAL® simply A (10×20 cm) non-adhesive foam samples were provided by Advanced Medical Solutions Ltd. The wound dressings were cut into ~5-10×5-10 mm squares, using an ethanol washed pair of scissors. A maximum of 0.20 g of the material was added into 10 mL DI water, and the pH was adjusted to ~3 by the addition of 0.1 M aq. HCl solution. The solution was stirred for 10 mins at room temperature, followed by the addition of 0.33 g EDC •HCl (1.7 mmol) and the pH was maintained at ~3 by the addition of 0.1 M aq. HCl solution. The solution was stirred at room temperature for 10 mins followed by the addition of 0.88 g compound 8 which was dissolved in DMSO or DMF. The mixture was stirred at room temperature for 48 h. The wound dressings were filtered and were washed with ethanol. To ensure the full removal of any non-coupled amide (8), the foam samples were resuspended in ethanol, stirred for 10 mins and filtered, and this process was repeated until the amide (8) was not detectable from the filtrate (this could be maintained by TLC or HPLC evaluation). The samples were dried in a vacuum oven for 3-4 h.
(§2) The aqueous solution of 3a or 3b was prepared by the following: the desired amount of the enzymatic substrate (3.0 mg for 300 mg/L, 6.0 mg for 600 mg/L, 9.0 mg for 900 mg/L, 15.0 mg for 1500 mg/L, and 30.0 mg for 3000 mg/L) was weighed out on a 4 decimal place balance within ±0.3 mg error limit into a 10 mL volumetric flask and was adjusted to 10.0 mL with DI water. The solutions were absorbed into the foam samples and dried in a vacuum oven at 40° C. overnight.
Bacterial strains were routinely cultured from working stocks in Tryptic Soy Broth (TSB) and incubated at 37° C. overnight with shaking at 150 RPM. Overnight cultures were centrifuged at 3000×g for 5 minutes, the supernatant discarded, and the pellet resuspended in 10 mL phosphate buffered saline (PBS). Bacterial inoculums were standardised by optical density at 600 nm on an Amersham Biosciences Ultrospec 10 spectrophotometer (Amersham Biosciences, Amersham, UK) to contain between 1 and 3×10^8 CFU/mL.
However, rapid evaluation of lower bacteria concentrations is essential for the desired clinical application. Three different solutions (300, 600 and 1500 mg/L) were prepared from the substrates 3a and 3b in micro filtered DI water as a solvent. The solutions were absorbed into the wound dressing samples, which were dried overnight under vacuum at 40° C.
Two Gram negative strains (Escherichia coli—EC and Pseudomonas aeruginosa—PSA) and a Gram-positive bacterium (Staphylococcus aureus—SA) were evaluated. The bacteria were incubated overnight, centrifuged at 3000×g for 5 mins, the supernatant was discarded, and the residue pellets were resuspended in 10 mL PBS. The inoculums were standardised by measuring the optical density at 600 nm to assure a 1-3×10^8 CFU/mL. The standardised solutions were further diluted to prepare 1-3×10^6 and 1-3×10^4 CFU/mL suspension. 1×10^6 CFU would be an ideal breakpoint for a positive result, as this concentration coincides well with a level of colonisation that would likely go on to produce an infection.
100 μL bacterial suspensions were smeared over agar plates. Wound dressing samples were added to the top of the agar and were rolled over a few times (to ensure a full coverage and to ease the visibility of the colour change). The plates were incubated at 37° C., and the results were recorded after 24 h, after 48 h, after 72 h. The results are shown in Table 3-5; − indicates no colour change, +− indicates relatively discernible blue colour change, + indicates a moderately strong blue colour change and ++ indicates a strong blue colour change.

Escherichia coli [2] = test: Microbiological evaluation of overnight bacteria suspensions, modified alginate wound dressing with absorbed substrate on agar; conditions: for Observable colour change: EC overnight culture, 24 h incubation at 37° C.
Procedure: as §1, §2
(§3) To model fluid exudate from a chronic wound, the wound dressing made according to ‘Modification of ActivHeal® Alginate’, above, was placed into an agar plate and the test pathogen was smeared over the surface of the agar.
(§4) The enzymatic substrates were tested in 4 different concentrations (300, 600, 900 and 3000 mg/L) using DI water as a solvent, and the solutions were absorbed into the wound dressing samples, which were dried overnight under vacuum at 40° C.
(§5) Two Gram negative strains (Escherichia coli—EC and Pseudomonas aeruginosa—PSA) and a Gram positive bacteria (Staphylococcus aureus—SA) were evaluated against the dimethyl (3a) and the diethyl (3b) substituted substrate. The overnight cultures were directly smeared from LB broth onto Columbia blood agar without measuring the OD. The wound dressings with the enzymatic substrate absorbed were placed onto the agar and were incubated overnight (see FIGS. 2-7).

Staphylococcus aureus = test: as above; conditions: SA overnight culture, 24 h incubation at 37° C.
Procedure: as §1, §2, §3, §4, §5

[3] = EC 10^4, substrate 300 mg/L, 24 h at 37° C.
[4] = EC 10^4, substrate 300 mg/L, 48 h at 37° C.
[5] = EC 10^4, substrate 300 mg/L, 72 h at 37° C.
[6] = EC 10^4, substrate 900 mg/L, 24 h at 37° C.
[7] = EC 10^4, substrate 900 mg/L, 48 h at 37° C.
[8] = EC 10^4, substrate 900 mg/L, 72 h at 37° C.
[9] = EC 10^4, substrate 1500 mg/L, 24 h at 37° C.
[10] = EC 10^4, substrate 1500 mg/L, 48 h at 37° C.
[11] = EC 10^4, substrate 1500 mg/L, 72 h at 37° C.
[12] = EC 10^6, substrate 300 mg/L, 24 h at 37° C.
[13] = EC 10^6, substrate 300 mg/L, 48 h at 37° C.
[14] = EC 10^6, substrate 300 mg/L, 72 h at 37° C.
[15] = EC 10^6, substrate 900 mg/L, 24 h at 37° C.
[16] = EC 10^6, substrate 900 mg/L, 48 h at 37° C.
[17] = EC 10^6, substrate 900 mg/L, 72 h at 37° C.
[18] = EC 10^6, substrate 1500 mg/L, 24 h at 37° C.
[19] = EC 10^6, substrate 1500 mg/L, 48 h at 37° C.
[20] = EC 10^6, substrate 1500 mg/L, 72 h at 37° C.
[21] = EC 10^8, 10^6 or 10^4 CFU, after 72 h, every tested substrate concentration
[22] = EC 10^8, substrate 300 mg/L, 24 h at 37° C.
[23] = EC 10^8, substrate 300 mg/L, 48 h at 37° C.
[24] = EC 10^8, substrate 300 mg/L, 72 h at 37° C.
[25] = EC 10^8, substrate 900 mg/L, 24 h at 37° C.
[26] = EC 10^8, substrate 900 mg/L, 48 h at 37° C.
[27] = EC 10^8, substrate 900 mg/L, 72 h at 37° C.
[28] = EC 10^8, substrate 1500 mg/L, 24 h at 37° C.
[29] = EC 10^8, substrate 1500 mg/L, 48 h at 37° C.
[30] = EC 10^8, substrate 1500 mg/L, 72 h at 37° C.

SMILES	Observable colour change (Escherichia coli [1]; [3])	Observable colour change (Escherichia coli [1]; [4])	Observable colour change (Escherichia coli [1]; [5])	Observable colour change (Escherichia coli [1]; [6])	Observable colour change (Escherichia coli [1]; [7])	Observable colour change (Escherichia coli [1]; [8])	Observable colour change (Escherichia coli [1]; [9])	Observable colour change (Escherichia coli [1]; [10])	Observable colour change (Escherichia coli [1]; [11])	Observable colour change (Escherichia coli [1]; [12])	Observable colour change (Escherichia coli [1]; [13])	Observable colour change (Escherichia coli [1]; [14])	Observable colour change (Escherichia coli [1]; [15])	Observable colour change (Escherichia coli [1]; [16])	Observable colour change (Escherichia coli [1]; [17])	Observable colour change (Escherichia coli [1]; [18])	Observable colour change (Escherichia coli [1]; [19])	Observable colour change (Escherichia coli [1]; [20])	colour change (Escherichia coli [1]; [21])	Observable colour change (Escherichia coli [1]; [22])	other results
CC(C)C[C@H](N)C(=O)Nc1ccc(N(C)C)cc1.Cl [3a, (2S)-2-amino-N-[4-(dimethylamino)phenyl]-4-methyl-pentanamide hydrochloride]	−	−	−	−	−	+	−	+−	+	−	+−	+	−	+−	+	+−	+	++	moderate or strong blue colour changes	+−	Observable colour change (Escherichia coli [1]; [23]): +; Observable colour change (Escherichia coli [1]; [24]): ++; Observable colour change (Escherichia coli [1]; [25]): +−; Observable colour change (Escherichia coli [1]; [26]): +; Observable colour change (Escherichia coli [1]; [27]): ++; Observable colour change (Escherichia coli [1]; [28]): +−; Observable colour change (Escherichia coli [1]; [29]): +; Observable colour change (Escherichia coli [1]; [30]): ++; colour change (Escherichia coli [1]; EC, substrate 900 or 1500 mg/L, printed in the 48 h paragraph): moderate or strong colour change; Observable colour change (Escherichia coli [2]; substrate 300 mg/L): Light blue; Observable colour change (Escherichia coli [2]; substrate 600 mg/L): Light blue; Observable colour change (Escherichia coli [2]; substrate 900 mg/L): Blue; Observable colour change (Escherichia coli [2]; substrate 3000 mg/L): Dark blue; Observable colour change (Staphylococcus aureus; substrate 300 mg/L): None; Observable colour change (Staphylococcus aureus; substrate 600 mg/L): Pale blue; Observable colour change (Staphylococcus aureus; substrate 900 mg/L): None; Observable colour change (Staphylococcus aureus; substrate 3000 mg/L): Light blue
CCN(CC)c1ccc(NC(=O)[C@@H](N)CC(C)C)cc1.Cl [3b, (2S)-2-amino-N-[4-(diethylamino)phenyl]-4-methyl-pentanamide hydrochloride]	−	+	+	−	+	++	−	+	++	−	+	+	−	+	++	+−	+	++	moderate or strong blue colour changes	+−	colour change (Escherichia coli [1]; EC 10^6 CFU and 10^4 CFU, after 48 h incubation): moderate colour change; Observable colour change (Escherichia coli [1]; [23]): +; Observable colour change (Escherichia coli [1]; [24]): +; Observable colour change (Escherichia coli [1]; [25]): +−; Observable colour change (Escherichia coli [1]; [26]): ++; Observable colour change (Escherichia coli [1]; [27]): ++; Observable colour change (Escherichia coli [1]; [28]): +−; Observable colour change (Escherichia coli [1]; [29]): ++; Observable colour change (Escherichia coli [1]; [30]): ++; colour change (Escherichia coli [1]; EC 10^8 CFU, 10^6 CFU, and 104 CFU, substrate 900 mg/L, printed in the 48 h paragraph): strong blue colour changes; colour change (Escherichia coli [1]; EC 10^8 CFU, after 48 h incubation, substrate 900 or 1500 mg/L): strong blue colour changes; Observable colour change (Escherichia coli [2]; substrate 300 mg/L, hydrochloride): blue colour changes; also recorded: Light blue; Observable colour change (Escherichia coli [2]; substrate 600 mg/L): Light blue; Observable colour change (Escherichia coli [2]; substrate 900 mg/L): Dark blue; Observable colour change (Escherichia coli [2]; substrate 3000 mg/L): Dark blue; colour change strength compared with the dimethyl analogue (Escherichia coli [2]; overnight cultures (EC, PSA, SA), overall comparison of Table 2): stronger colour changes than the dimethyl analogue (3a); Observable colour change (Staphylococcus aureus; substrate 300 mg/L): None; Observable colour change (Staphylococcus aureus; substrate 600 mg/L): None; Observable colour change (Staphylococcus aureus; substrate 900 mg/L): None; Observable colour change (Staphylococcus aureus; substrate 3000 mg/L, hydrochloride): produced the colour change and Blue
